The supplement of paper PMC11061612

Legend:
[1] = system: HCC1143 (Breast Carcinoma); assay: combination Emax (second highest fraction inhibited in the dose matrix, 72 h); higher = more inhibition; extreme values may be limits of the assay
How it was run: (§1)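 After 24 hours at 37°C and 5% CO2 in 1536-well plates, cells in DMEM/F12 or RPMI plus 10% FBS received two-drug dose matrices for 72 hours. Viability came from CellTiter-Glo 2.0 luminescence and was scaled as inhibition, anchored at 0 by vehicle wells and at 1 by blank wells. Combination Emax is taken as the second-highest inhibition in the matrix, and Bliss excess as the observed combination effect less EA + EB − EA·EB, with EA and EB the single-agent effects.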

[2] = system: 647-V (Bladder Carcinoma); assay: as above
How it was run: as §1

[3] = system: SLVL (B-Cell Non-Hodgkin's Lymphoma); assay: as above
How it was run: as §1

[4] = system: MES-SA (Other Solid Carcinomas); assay: as above
How it was run: as §1

[5] = system: SNG-M (Endometrial Carcinoma); assay: as above
How it was run: as §1

[6] = system: MSTO-211H (Mesothelioma); assay: as above
How it was run: as §1

[7] = system: SW48 (Colorectal Carcinoma); assay: Bliss excess, mean over the matrix (fraction); higher = more synergy
How it was run: as §1

[8] = system: HCC38 (Breast Carcinoma); assay: as above
How it was run: as §1

[9] = system: EW-22 (Ewing's Sarcoma); assay: as above
How it was run: as §1

[10] = system: SKN-3 (Head and Neck Carcinoma); assay: as above
How it was run: as §1

[11] = system: MES-SA (Other Solid Carcinomas); assay: as above
How it was run: as §1

[12] = system: GDM-1 (Acute Myeloid Leukemia); assay: as above
How it was run: as §1

[13] = system: SW948 (Colorectal Carcinoma); assay: as above
How it was run: as §1

[14] = system: NOMO-1 (Acute Myeloid Leukemia); assay: as above
How it was run: as §1

[15] = system: ETK-1 (Biliary Tract Carcinoma); assay: as above
How it was run: as §1

[16] = system: U-118-MG (Low Grade Glioma); assay: as above
How it was run: as §1

[17] = system: D-283MED (Other Solid Carcinomas); assay: as above
How it was run: as §1

[18] = system: RCC10RGB (Kidney Carcinoma); assay: as above
How it was run: as §1

[19] = system: NCI-H1688 (Small Cell Lung Carcinoma); assay: as above
How it was run: as §1

[20] = system: HuO9 (Osteosarcoma); assay: as above
How it was run: as §1
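For Bliss excess, mean over the matrix in this document: after 72 h of two-drug dosing.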

Row | SMILES | combination Emax [1] | combination Emax [2] | combination Emax [3] | combination Emax [4] | combination Emax [5] | combination Emax [6] | Bliss excess [7] | Bliss excess [8] | Bliss excess [9] | Bliss excess [10] | Bliss excess [11] | Bliss excess [12] | Bliss excess [13] | Bliss excess [14] | Bliss excess [15] | Bliss excess [16] | Bliss excess [17] | Bliss excess [18] | Bliss excess [19] | Bliss excess [20]
1 | CC(=O)c1c(C)c2cnc(Nc3ccc(N4CCNCC4)cn3)nc2n(C2CCCC2)c1=O [Palbociclib] + Cc1c2c(nn1C)CSCc1cc(n(C)n1)CSc1cc(c3ccccc3c1)OCCCc1c(C(=O)O)n(C)c3c-2c(Cl)ccc13 [AZD5991] (first compound max 10 µM, 7x7, partner max 1 µM) | 0.287 | 0.117 | 0.471 | 0.513 | 0.485 | 0.144 | 0.0255 | -0.0244 | 0.0039 | -0.0428 | -0.05 | 0.0919 | 0.0058 | -0.0915 | -0.0808 | -0.0201 | 0.0099 | -0.0083 | 0.0284 | 0.0088
2 | CC(=O)c1c(C)c2cnc(Nc3ccc(N4CCNCC4)cn3)nc2n(C2CCCC2)c1=O [Palbociclib] + Cn1cnc2c(F)c(Nc3ccc(Br)cc3Cl)c(C(=O)NOCCO)cc21 [Selumetinib] (first compound max 10 µM, 7x7, partner max 10 µM) | 0.295 | 0.206 | 0.593 | 0.38 | 0.296 | 0.137 | 0.0668 | -0.0291 | -0.0158 | 0.0345 | -0.0009 | 0.0343 | -0.0078 | -0.014 | -0.0351 | -0.0114 | 0.0045 | -0.0121 | -0.0471 | -0.064
3 | COc1cccc(OCCCN)c1-c1cc(Nc2cnc(C#N)cn2)n[nH]1 [Prexasertib] + C=CCn1c(=O)c2cnc(Nc3ccc(N4CCN(C)CC4)cc3)nc2n1-c1cccc(C(C)(C)O)n1 [AZD1775] (first compound max 1 µM, partner max 1 µM) | 0.925 | 0.925 | 0.951 | 0.892 | 0.985 | 0.875 | 0.1 | 0.0246 | 0.223 | 0.119 | 0.078 | 0.0096 | 0.0608 | 0.0539 | 0.0651 | 0.0225 | 0.079 | -0.0202 | 0.186 | 0.109
4 | COc1cccc(OCCCN)c1-c1cc(Nc2cnc(C#N)cn2)n[nH]1 [Prexasertib] + CCc1c2c(nc3ccc(O)cc13)-c1cc3c(c(=O)n1C2)COC(=O)[C@]3(O)CC [SN-38] (first compound max 1 µM, 7x7, partner max 0.3 µM) | 0.928 | 1 | 0.968 | 0.762 | 0.899 | 0.808 | -0.0333 | -0.0201 | -0.0916 | 0.0703 | -0.0714 | -0.0108 | 0.151 | -0.0319 | 0.0465 | -0.0193 | -0.0222 | -0.081 | 0.111 | -0.0301
5 | COc1cccc(OCCCN)c1-c1cc(Nc2cnc(C#N)cn2)n[nH]1 [Prexasertib] + CN(C)CCCOc1ccc(-c2ccc3ncc4c(c3c2)n(C2CCOCC2)c(=O)n4C)cn1 [AZD0156] (first compound max 1 µM, 7x7, partner max 1 µM) | 0.912 | 0.671 | 0.951 | 0.905 | 0.99 | 0.888 | -0.0227 | -0.0482 | -0.05 | 0.011 | 0.0641 | -0.0491 | 0.0294 | -0.0154 | 0.0229 | 0.041 | 0.0116 | -0.0296 | 0.016 | -0.0958
6 | COc1cccc(OCCCN)c1-c1cc(Nc2cnc(C#N)cn2)n[nH]1 [Prexasertib] + C[C@@H]1COCCN1C2=NC(=NC(=C2)C3(CC3)[S@](=N)(=O)C)C4=C5C=CNC5=NC=C4 [AZD6738] (first compound max 1 µM, 7x7, partner max 10 µM) | 0.938 | 0.703 | 0.952 | 0.757 | 1 | 0.852 | 0.0015 | -0.0029 | -0.0326 | -0.0347 | -0.0765 | -0.0333 | 0.0334 | -0.0147 | -0.0028 | -0.0136 | 0.0042 | 0.0657 | 0.0117 | -0.0638
7 | COc1cccc(OCCCN)c1-c1cc(Nc2cnc(C#N)cn2)n[nH]1 [Prexasertib] + Cc1cc2ncnn2cc1Nc1ncc2c(n1)n(C1CCOCC1)c(=O)n2C [AZD7648] (first compound max 1 µM, 7x7, partner max 10 µM) | 0.883 | 0.757 | 0.962 | 0.912 | 0.954 | 0.894 | -0.0344 | -0.0592 | -0.0519 | -0.0564 | -0.02 | -0.058 | -0.0155 | -0.0388 | 0.059 | -0.0584 | -0.0193 | -0.075 | 0.0044 | -0.105
8 | COc1cccc(OCCCN)c1-c1cc(Nc2cnc(C#N)cn2)n[nH]1 [Prexasertib] + O=C(c1cc(Cc2n[nH]c(=O)c3ccccc23)ccc1F)N1CCN(C(=O)C2CC2)CC1 [Olaparib] (first compound max 1 µM, 7x7, partner max 10 µM) | 0.735 | 0.843 | 0.974 | 0.809 | 0.929 | 0.806 | -0.0795 | -0.0641 | -0.0447 | -0.0113 | -0.0561 | -0.0516 | -0.0118 | -0.027 | 0.0573 | -0.0445 | -0.0232 | -0.0784 | -0.0135 | 0.0553
9 | COc1cc2c(cc1OCCCCCOc1cc3c(cc1OC)C(=O)N1C=C(C)C[C@H]1C=N3)N=C[C@@H]1CC(C)=CN1C2=O [SG3199] + O=C(c1cc(Cc2n[nH]c(=O)c3ccccc23)ccc1F)N1CCN(C(=O)C2CC2)CC1 [Olaparib] (first compound max 0.001 µM, 7x7, partner max 10 µM) | 0.225 | 0.276 | 0.518 | 0.43 | 0.159 | 0.124 | -0.0321 | -0.0356 | -0.0544 | -0.0276 | 0.0626 | -0.0311 | -0.0092 | -0.0328 | -0.0021 | -0.0488 | -0.0347 | -0.052 | -0.0264 | -0.0273
10 | CCc1c2c(nc3ccc(O)cc13)-c1cc3c(c(=O)n1C2)COC(=O)[C@]3(O)CC [SN-38] + CN(C)CCCOc1ccc(-c2ccc3ncc4c(c3c2)n(C2CCOCC2)c(=O)n4C)cn1 [AZD0156] (first compound max 0.3 µM, 7x7, partner max 1 µM) | 0.662 | 0.985 | 0.972 | 0.782 | 0.433 | 0.804 | 0.098 | -0.0453 | 0.0276 | -0.0209 | -0.0316 | -0.0216 | 0.237 | 0.034 | 0.0083 | -0.0108 | -0.024 | -0.0262 | -0.0222 | 0.0365
11 | C[C@@H](c1ccc2nccn2c1)n1nnc2ncc(-c3cnn(C)c3)nc21 [Savolitinib] + CC1(C)CCC(CN2CCN(c3ccc(C(=O)NS(=O)(=O)c4ccc(NCC5CCOCC5)c([N+](=O)[O-])c4)c(Oc4cnc5[nH]ccc5c4)c3)CC2)=C(c2ccc(Cl)cc2)C1 [Venetoclax] (first compound max 1 µM, 7x7, partner max 1 µM) | 0.29 | 0.0716 | 0.406 | 0.0576 | 0.246 | 0.114 | -0.0289 | -0.0111 | -0.0281 | -0.0543 | -0.0736 | -0.0236 | -0.0488 | -0.0561 | -0.0777 | -0.0416 | -0.0144 | -0.0768 | -0.047 | -0.0531
12 | C[C@@H](c1ccc2nccn2c1)n1nnc2ncc(-c3cnn(C)c3)nc21 [Savolitinib] + Cc1c2c(nn1C)CSCc1cc(n(C)n1)CSc1cc(c3ccccc3c1)OCCCc1c(C(=O)O)n(C)c3c-2c(Cl)ccc13 [AZD5991] (first compound max 1 µM, 7x7, partner max 1 µM) | 0.402 | 0.233 | 0.374 | 0.191 | 0.32 | 0.123 | -0.0232 | -0.0279 | -0.0595 | -0.0758 | -0.0465 | -0.0004 | -0.0305 | 0.0497 | -0.0544 | 0.0095 | 0.0649 | -0.0371 | 0.0064 | -0.0416
13 | Cn1cnc2c(F)c(Nc3ccc(Br)cc3Cl)c(C(=O)NOCCO)cc21 [Selumetinib] + C=CCn1c(=O)c2cnc(Nc3ccc(N4CCN(C)CC4)cc3)nc2n1-c1cccc(C(C)(C)O)n1 [AZD1775] (first compound max 10 µM, partner max 1 µM) | 0.528 | 0.651 | 0.797 | 0.731 | 0.555 | 0.442 | 0.0116 | -0.0768 | -0.0632 | 0.0226 | -0.0289 | -0.0254 | -0.0258 | -0.0509 | -0.0128 | -0.061 | -0.0295 | -0.0703 | -0.115 | -0.0824
14 | Cn1cnc2c(F)c(Nc3ccc(Br)cc3Cl)c(C(=O)NOCCO)cc21 [Selumetinib] + CC(C)n1c(=O)n(C)c2cnc3cc(F)c(-c4ccc(OCCCN5CCCCC5)nc4)cc3c21 [AZD1390] (first compound max 10 µM, 7x7, partner max 0.3 µM) | 0.297 | 0.154 | 0.448 | 0.115 | 0.187 | 0.162 | -0.0561 | -0.0306 | -0.0304 | -0.0318 | -0.0335 | -0.0523 | -0.0174 | -0.0617 | -0.0432 | -0.0587 | -0.0123 | -0.0004 | -0.016 | 0.0143
